# Measurements: patent US8895746B2 (University of Central Florida Research Foundation, Inc., priority 2009, dated 2014)
# Columns and labels:
# [1] = tested on: Stat3-dependent luciferase reporter (pLucTKS3); experiment: Stat3-dependent luciferase reporter in NIH3T3/v-Src; assay type: cell-based, mouse; details: NIH3T3/v-Src stably expressing pLucTKS3; 36-h treatment
# Description: Positions of STATs:DNA complexes or proteins in gel are labeled; control lanes (0) represent nuclear extracts treated with 0.05% DMSO, or nuclear extracts or whole-cell lysates prepared from 0.05% DMSO-treated cells. Data are representative of 3-4 independent determinations. **—<0.01;
# Normal mouse fibroblasts (NIH3T3) and counterparts transformed by v-Src (NIH3T3/v-Src), v-Ras (NIH3T3/v-Ras) or overexpressing the human epidermal growth factor (EGF) receptor (NIH3T3/hEGFR), and the human breast cancer (MDA-MB-231) and pancreatic cancer (Panc-1) cells have all been previously reported (15,27-29). The normal human pancreatic duct epithelial cells (HPDEC) was a kind gift from Dr. Tsao, (OCI, UHN-PMH, Toronto) (30), Stat3 knockout mouse embryonic fibroblasts was generously provided by Dr. Poli (31), and the mouse thymic epithelial stromal cells (TE-71) was a generous gift from Dr. Farr (32). The Stat3dependent reporter, pLucTKS3 and the v-Src transformed mouse fibroblasts that stably express pLucTKS3 have been previously reported (15, 33). Cells were grown in Dulbecco's modified Eagle's medium (DMEM) containing 10% heat-inactivated fetal bovine serum, or in the case of HPDEC, they were grown in Keratinocyte-SFM media supplemented with 0.2 ng EGF, 30 μg/ml bovine pituitary extract and containing antimycol.
# [2] = biological target: T1, Stat3 association with EGFR (Homo sapiens, UniProt P40763); experiment: Co-immunoprecipitation of EGFR immunecomplex from treated Panc-1 and MDA-MB-231 cells; assay type: cell-based
# T1 construct: immunoprecipitated from whole-cell lysates prepared from treated and untreated cancer cells and blotted for Stat3; endogenous in cells; host or cells: Panc-1 and MDA-MB-231 cells
# T1 sequence (P40763 2-770 limits assumed): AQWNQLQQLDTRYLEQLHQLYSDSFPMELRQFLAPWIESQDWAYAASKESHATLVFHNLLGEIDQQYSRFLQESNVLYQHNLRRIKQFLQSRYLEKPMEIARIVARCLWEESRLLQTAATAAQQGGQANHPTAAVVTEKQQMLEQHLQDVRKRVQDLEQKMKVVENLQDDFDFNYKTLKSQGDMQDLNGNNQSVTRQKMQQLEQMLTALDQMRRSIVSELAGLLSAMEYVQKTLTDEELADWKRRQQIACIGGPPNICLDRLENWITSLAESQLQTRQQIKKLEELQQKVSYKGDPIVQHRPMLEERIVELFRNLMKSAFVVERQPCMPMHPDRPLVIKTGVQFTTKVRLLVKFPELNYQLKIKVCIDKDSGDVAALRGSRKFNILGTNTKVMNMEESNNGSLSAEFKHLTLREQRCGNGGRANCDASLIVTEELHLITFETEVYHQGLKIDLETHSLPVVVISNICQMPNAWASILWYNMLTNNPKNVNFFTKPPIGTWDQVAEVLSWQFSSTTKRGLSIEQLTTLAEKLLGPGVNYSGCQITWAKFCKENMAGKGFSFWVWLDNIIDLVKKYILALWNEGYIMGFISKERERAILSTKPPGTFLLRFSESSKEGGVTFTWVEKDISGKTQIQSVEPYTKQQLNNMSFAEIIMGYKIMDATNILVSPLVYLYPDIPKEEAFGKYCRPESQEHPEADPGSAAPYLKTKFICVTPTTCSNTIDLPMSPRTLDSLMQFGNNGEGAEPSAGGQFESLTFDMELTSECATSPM
# Protocol: Immunoprecipitation from whole-cell lysates and SDS/PAGE and Western blotting analysis were performed as previously described (33,38).
# Cells were then subjected to immunostaining for EGFR (red) and Stat3 (green) and analyzed by confocal microscopy for EGF-induced colocalization of Stat3 and EGFR and for Stat3 nuclear translocation, as previously performed (17). In the resting NIH3T3/hEGFR fibroblasts, EGFR (red) is widely localized at the plasma membrane, while Stat3 (green) is localized at both the plasma membrane and in the cytoplasm, with a minimal colocalization with EGFR at the plasma membrane and no visible presence in the nucleus (stained blue for DAPI) (FIG. 4A upper panel).
# Stat3:Stat3 complex = biological target: T2, Stat3:Stat3 complex (Mus musculus, UniProt P42227); experiment: EMSA selectivity, nuclear extracts of EGF-stimulated NIH3T3/hEGFR, hSIE probe; assay type: biochemical
# T2 construct: endogenous in cells; host or cells: EGF-stimulated NIH3T3/hEGFR mouse fibroblasts (nuclear extract)
# T2 sequence (P42227 2-770 limits assumed, one chain of several): as the sequence (P40763 2-770 limits assumed) above, with E759D counted along it
# Protocol: (§1) Nuclear extract preparations and electrophoretic mobility shift assay (EMSA) were carried out as previously described (28,33). […] Except where indicated, nuclear extracts were pre-incubated with compound for 30 min at room temperature prior to incubation with the radiolabeled probe for 30 min at 30° C. before subjecting to EMSA analysis.
# Stat1:Stat1 complex = biological target: T3, Stat1:Stat1 complex (Mus musculus, UniProt P42225); experiment: as above; assay type: biochemical
# T3 construct: endogenous in cells; host or cells: EGF-stimulated NIH3T3/hEGFR mouse fibroblasts (nuclear extract)
# T3 sequence (P42225 2-749 limits assumed): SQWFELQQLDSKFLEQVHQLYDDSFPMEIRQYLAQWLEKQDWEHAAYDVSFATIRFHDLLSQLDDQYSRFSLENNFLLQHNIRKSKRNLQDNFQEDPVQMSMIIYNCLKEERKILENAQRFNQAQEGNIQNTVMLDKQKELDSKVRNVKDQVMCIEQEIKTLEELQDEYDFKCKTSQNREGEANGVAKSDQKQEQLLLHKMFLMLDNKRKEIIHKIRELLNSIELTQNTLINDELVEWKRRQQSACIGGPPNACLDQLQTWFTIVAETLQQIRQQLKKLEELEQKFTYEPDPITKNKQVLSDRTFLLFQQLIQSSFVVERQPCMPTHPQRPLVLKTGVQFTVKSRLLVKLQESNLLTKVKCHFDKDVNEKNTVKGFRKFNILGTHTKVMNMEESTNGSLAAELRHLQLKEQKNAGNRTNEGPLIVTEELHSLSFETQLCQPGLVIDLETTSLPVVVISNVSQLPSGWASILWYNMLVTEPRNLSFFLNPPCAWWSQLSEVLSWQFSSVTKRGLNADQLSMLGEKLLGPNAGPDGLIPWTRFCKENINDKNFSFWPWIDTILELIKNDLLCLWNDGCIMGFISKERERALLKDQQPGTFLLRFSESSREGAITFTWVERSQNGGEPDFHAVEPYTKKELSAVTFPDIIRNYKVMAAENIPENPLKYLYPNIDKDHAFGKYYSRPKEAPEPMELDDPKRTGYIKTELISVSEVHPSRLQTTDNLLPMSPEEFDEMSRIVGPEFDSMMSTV
# Protocol: as §1
# Stat1:Stat3 complex = biological target: T4, Stat1:Stat3 complex (Mus musculus, UniProt P42227); experiment: as above; assay type: biochemical
# T4 construct: endogenous in cells; host or cells: EGF-stimulated NIH3T3/hEGFR mouse fibroblasts (nuclear extract)
# T4 sequence (P42227 2-770 limits assumed, one chain of several): as the sequence (P40763 2-770 limits assumed) above, with E759D counted along it
# Protocol: as §1
# NIH3T3/v-Ras fibroblasts = experiment: Wound healing assay for migration; assay type: cell-based, mouse; details: same treatment conditions
# Description: Wounds were made using pipette tips in monolayer cultures of cells in six-well plates. […] The migration of cells was visualized at a 10× magnification using an Axiovert 200 Inverted Fluorescence Microscope (Zeiss, Göttingen Germany), with pictures taken using a mounted Canon Powershot A640 digital camera (Canon USA, Lake Success, N.Y.). Cells that migrated into the denuded area were quantified. Mice and in vivo tumor studies-Six-week-old female athymic nude mice were purchased from Harlan and maintained in the institutional animal facilities approved by the American Association for Accreditation of Laboratory Animal Care. Athymic nude mice were injected subcutaneously in the left flank area with 5×10^6 human breast cancer MDA-MB-231 cells in 100 μL of PBS. After 5 to 10 days, tumors of a diameter of 3 mm were established. […] Tumor volume was calculated according to the formula V=0.52×a^2×b, where a, smallest superficial diameter, b, largest superficial diameter.
compound,measurement,setting,value
Cc1ccc(S(=O)(=O)N(C)CC(=O)N(Cc2ccc(C3CCCCC3)cc2)c2ccc(C(=O)O)c(O)c2)cc1 [S3I-201.1066],induction of the Stat3-dependent reporter,[1],significantly (p<0.01) repressed
same,Shc or Grb 2 levels associated with EGFR in the complex,[2],without affecting
same,level of Stat3 associated with EGFR in the immunecomplex,[2],significantly diminished
same,levels of activated and total Erk1/2 in whole-cell lysates,[2],unaffected
same,effect on Stat3:Stat3 complex with hSIE probe,Stat3:Stat3 complex; 50 μM,significantly disrupted
same,effect on Stat3:Stat3 complex with hSIE probe,Stat3:Stat3 complex; 100 μM,completely disrupted
same,inhibition of Stat1:Stat1 complex,Stat1:Stat1 complex; 50 μM,no significant inhibition
same,inhibition of Stat1:Stat1 complex,Stat1:Stat1 complex; 100 μM,moderate inhibition
same,inhibition of Stat1:Stat1 complex,Stat1:Stat1 complex; 200 μM,complete inhibition
same,effect on Stat1:Stat3 complex,Stat1:Stat3 complex; 50 μM,similarly repressed
same,effect on Stat1:Stat3 complex,Stat1:Stat3 complex; 100 μM,completely disrupted
same,migration,NIH3T3/v-Ras fibroblasts,minimally affected
